{"source": "the supplement of paper PMC10307832", "data": [{"compound": "Cn1c(=O)n(-c2ccc(C(C)(C)C#N)cc2)c2c3cc(-c4cnc5ccccc5c4)ccc3ncc21 [Dactolisib] + CS(=O)(=O)CCNCc1ccc(-c2ccc3ncnc(Nc4ccc(OCc5cccc(F)c5)c(Cl)c4)c3c2)o1 [Lapatinib] (partner 2 µM)", "experiment": "relative viability (nuclei count vs DMSO), 5 days (fraction); higher = more cells survive", "conditions": "first compound 0.002 µM", "in_short": "(§1)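 Relative viability equals treated-well nuclei counts divided by vehicle-well nuclei counts. Counts came from 4× images of lung cancer cell lines grown in 1536-well plates for 5 days after pin-tool dosing on the day after seeding. Dosing used one drug alone or a fixed anchor-drug dose plus five library-drug doses (not always all listed) in √10 steps, and values are medians of duplicate plates.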", "values": [{"cell line": "NCI-H2085", "relative viability": 0.798}, {"cell line": "Calu-6", "relative viability": 1.18}, {"cell line": "HCC-366", "relative viability": 0.897}, {"cell line": "NCI-H1666", "relative viability": 0.723}, {"cell line": "NCI-H596", "relative viability": 1.02}, {"cell line": "LK-2", "relative viability": 0.804}, {"cell line": "NCI-H2087", "relative viability": 1.21}, {"cell line": "SK-MES-1", "relative viability": 0.476}, {"cell line": "H3255", "relative viability": 0.329}, {"cell line": "COR-L23", "relative viability": 1.39}, {"cell line": "COR-L 105", "relative viability": 0.311}, {"cell line": "IA-LM", "relative viability": 0.769}, {"cell line": "LOU-NH91", "relative viability": 0.725}, {"cell line": "NCI-H2170", "relative viability": 0.263}, {"cell line": "NCI-H2405", "relative viability": 1.03}, {"cell line": "HOP-62", "relative viability": 1.28}, {"cell line": "HCC-44", "relative viability": 1.09}, {"cell line": "A549", "relative viability": 1.07}, {"cell line": "LU99A", "relative viability": 0.94}, {"cell line": "BEN", "relative viability": 0.882}, {"cell line": "HARA", "relative viability": 0.652}, {"cell line": "HCC-78", "relative viability": 0.769}, {"cell line": "NCI-H322M", "relative viability": 0.612}, {"cell line": "LCLC-97TM1", "relative viability": 0.926}, {"cell line": "NCI-H2009", "relative viability": 1.1}, {"cell line": "A-427", "relative viability": 1.06}, {"cell line": "NCI-H661", "relative viability": 0.434}, {"cell line": "NCI-H1734", "relative viability": 1.02}, {"cell line": "NCI-H460", "relative viability": 0.965}, {"cell line": "NCI-H2347", "relative viability": 1.16}, {"cell line": "SW 1573", "relative viability": 1.13}]}, {"compound": "Cn1c(=O)n(-c2ccc(C(C)(C)C#N)cc2)c2c3cc(-c4cnc5ccccc5c4)ccc3ncc21 [Dactolisib] + CS(=O)(=O)CCNCc1ccc(-c2ccc3ncnc(Nc4ccc(OCc5cccc(F)c5)c(Cl)c4)c3c2)o1 [Lapatinib] (partner 2 µM)", "experiment": "relative viability (nuclei count vs DMSO), 5 days (fraction); higher = more cells survive", "conditions": "first compound 0.006325 µM", "in_short": "as §1", "values": [{"cell line": "NCI-H2085", "relative viability": 0.657}, {"cell line": "Calu-6", "relative viability": 1.08}, {"cell line": "HCC-366", "relative viability": 0.988}, {"cell line": "NCI-H1666", "relative viability": 0.559}, {"cell line": "NCI-H596", "relative viability": 1.06}, {"cell line": "LK-2", "relative viability": 0.831}, {"cell line": "NCI-H2087", "relative viability": 1.16}, {"cell line": "SK-MES-1", "relative viability": 0.452}, {"cell line": "H3255", "relative viability": 0.257}, {"cell line": "COR-L23", "relative viability": 0.864}, {"cell line": "COR-L 105", "relative viability": 0.355}, {"cell line": "IA-LM", "relative viability": 0.671}, {"cell line": "LOU-NH91", "relative viability": 0.782}, {"cell line": "NCI-H2170", "relative viability": 0.289}, {"cell line": "NCI-H2405", "relative viability": 1.11}, {"cell line": "HOP-62", "relative viability": 1.04}, {"cell line": "HCC-44", "relative viability": 1}, {"cell line": "A549", "relative viability": 0.769}, {"cell line": "LU99A", "relative viability": 0.828}, {"cell line": "BEN", "relative viability": 0.624}, {"cell line": "HARA", "relative viability": 0.67}, {"cell line": "HCC-78", "relative viability": 0.753}, {"cell line": "NCI-H322M", "relative viability": 0.583}, {"cell line": "LCLC-97TM1", "relative viability": 0.558}, {"cell line": "NCI-H2009", "relative viability": 1.01}, {"cell line": "A-427", "relative viability": 1.04}, {"cell line": "NCI-H661", "relative viability": 0.475}, {"cell line": "NCI-H1734", "relative viability": 1}, {"cell line": "NCI-H460", "relative viability": 0.945}, {"cell line": "NCI-H2347", "relative viability": 0.943}, {"cell line": "SW 1573", "relative viability": 1.08}]}, {"compound": "Cn1c(=O)n(-c2ccc(C(C)(C)C#N)cc2)c2c3cc(-c4cnc5ccccc5c4)ccc3ncc21 [Dactolisib] + CS(=O)(=O)CCNCc1ccc(-c2ccc3ncnc(Nc4ccc(OCc5cccc(F)c5)c(Cl)c4)c3c2)o1 [Lapatinib] (partner 2 µM)", "experiment": "relative viability (nuclei count vs DMSO), 5 days (fraction); higher = more cells survive", "conditions": "first compound 0.02 µM", "in_short": "as §1", "values": [{"cell line": "NCI-H2085", "relative viability": 0.659}, {"cell line": "Calu-6", "relative viability": 0.98}, {"cell line": "HCC-366", "relative viability": 1.03}, {"cell line": "NCI-H1666", "relative viability": 0.691}, {"cell line": "NCI-H596", "relative viability": 0.909}, {"cell line": "LK-2", "relative viability": 0.807}, {"cell line": "NCI-H2087", "relative viability": 1.23}, {"cell line": "SK-MES-1", "relative viability": 0.428}, {"cell line": "H3255", "relative viability": 0.226}, {"cell line": "COR-L23", "relative viability": 0.765}, {"cell line": "COR-L 105", "relative viability": 0.363}, {"cell line": "IA-LM", "relative viability": 0.771}, {"cell line": "LOU-NH91", "relative viability": 0.666}, {"cell line": "NCI-H2170", "relative viability": 0.262}, {"cell line": "NCI-H2405", "relative viability": 1.01}, {"cell line": "HOP-62", "relative viability": 0.891}, {"cell line": "HCC-44", "relative viability": 1}, {"cell line": "A549", "relative viability": 0.674}, {"cell line": "LU99A", "relative viability": 0.516}, {"cell line": "BEN", "relative viability": 0.657}, {"cell line": "HARA", "relative viability": 0.761}, {"cell line": "HCC-78", "relative viability": 0.612}, {"cell line": "NCI-H322M", "relative viability": 0.616}, {"cell line": "LCLC-97TM1", "relative viability": 0.842}, {"cell line": "NCI-H2009", "relative viability": 0.95}, {"cell line": "A-427", "relative viability": 0.928}, {"cell line": "NCI-H661", "relative viability": 0.414}, {"cell line": "NCI-H1734", "relative viability": 0.817}, {"cell line": "NCI-H460", "relative viability": 0.927}, {"cell line": "NCI-H2347", "relative viability": 0.843}, {"cell line": "SW 1573", "relative viability": 1.04}]}, {"compound": "Cn1c(=O)n(-c2ccc(C(C)(C)C#N)cc2)c2c3cc(-c4cnc5ccccc5c4)ccc3ncc21 [Dactolisib] + CS(=O)(=O)CCNCc1ccc(-c2ccc3ncnc(Nc4ccc(OCc5cccc(F)c5)c(Cl)c4)c3c2)o1 [Lapatinib] (partner 2 µM)", "experiment": "relative viability (nuclei count vs DMSO), 5 days (fraction); higher = more cells survive", "conditions": "first compound 0.06325 µM", "in_short": "as §1", "values": [{"cell line": "NCI-H2085", "relative viability": 0.359}, {"cell line": "Calu-6", "relative viability": 0.645}, {"cell line": "HCC-366", "relative viability": 0.445}, {"cell line": "NCI-H1666", "relative viability": 0.318}, {"cell line": "NCI-H596", "relative viability": 0.574}, {"cell line": "LK-2", "relative viability": 0.474}, {"cell line": "NCI-H2087", "relative viability": 0.855}, {"cell line": "SK-MES-1", "relative viability": 0.352}, {"cell line": "H3255", "relative viability": 0.237}, {"cell line": "COR-L23", "relative viability": 0.299}, {"cell line": "COR-L 105", "relative viability": 0.267}, {"cell line": "IA-LM", "relative viability": 0.156}, {"cell line": "LOU-NH91", "relative viability": 0.567}, {"cell line": "NCI-H2170", "relative viability": 0.235}, {"cell line": "NCI-H2405", "relative viability": 0.735}, {"cell line": "HOP-62", "relative viability": 0.756}, {"cell line": "HCC-44", "relative viability": 0.68}, {"cell line": "A549", "relative viability": 0.224}, {"cell line": "LU99A", "relative viability": 0.336}, {"cell line": "BEN", "relative viability": 0.408}, {"cell line": "HARA", "relative viability": 0.421}, {"cell line": "HCC-78", "relative viability": 0.47}, {"cell line": "NCI-H322M", "relative viability": 0.527}, {"cell line": "LCLC-97TM1", "relative viability": 0.269}, {"cell line": "NCI-H2009", "relative viability": 0.9}, {"cell line": "A-427", "relative viability": 0.883}, {"cell line": "NCI-H661", "relative viability": 0.257}, {"cell line": "NCI-H1734", "relative viability": 0.342}, {"cell line": "NCI-H460", "relative viability": 0.234}, {"cell line": "NCI-H2347", "relative viability": 0.906}, {"cell line": "SW 1573", "relative viability": 0.458}]}, {"compound": "Cn1c(=O)n(-c2ccc(C(C)(C)C#N)cc2)c2c3cc(-c4cnc5ccccc5c4)ccc3ncc21 [Dactolisib] + CS(=O)(=O)CCNCc1ccc(-c2ccc3ncnc(Nc4ccc(OCc5cccc(F)c5)c(Cl)c4)c3c2)o1 [Lapatinib] (partner 2 µM)", "experiment": "relative viability (nuclei count vs DMSO), 5 days (fraction); higher = more cells survive", "conditions": "first compound 0.2 µM", "in_short": "as §1", "values": [{"cell line": "NCI-H2085", "relative viability": 0.337}, {"cell line": "Calu-6", "relative viability": 0.531}, {"cell line": "HCC-366", "relative viability": 0.613}, {"cell line": "NCI-H1666", "relative viability": 0.391}, {"cell line": "NCI-H596", "relative viability": 0.369}, {"cell line": "LK-2", "relative viability": 0.235}, {"cell line": "NCI-H2087", "relative viability": 0.563}, {"cell line": "SK-MES-1", "relative viability": 0.296}, {"cell line": "H3255", "relative viability": 0.225}, {"cell line": "COR-L23", "relative viability": 0.295}, {"cell line": "COR-L 105", "relative viability": 0.35}, {"cell line": "IA-LM", "relative viability": 0.106}, {"cell line": "LOU-NH91", "relative viability": 0.51}, {"cell line": "NCI-H2170", "relative viability": 0.222}, {"cell line": "NCI-H2405", "relative viability": 0.393}, {"cell line": "HOP-62", "relative viability": 0.667}, {"cell line": "HCC-44", "relative viability": 0.547}, {"cell line": "A549", "relative viability": 0.145}, {"cell line": "LU99A", "relative viability": 0.257}, {"cell line": "BEN", "relative viability": 0.274}, {"cell line": "HARA", "relative viability": 0.318}, {"cell line": "HCC-78", "relative viability": 0.493}, {"cell line": "NCI-H322M", "relative viability": 0.508}, {"cell line": "LCLC-97TM1", "relative viability": 0.317}, {"cell line": "NCI-H2009", "relative viability": 0.327}, {"cell line": "A-427", "relative viability": 0.776}, {"cell line": "NCI-H661", "relative viability": 0.263}, {"cell line": "NCI-H1734", "relative viability": 0.378}, {"cell line": "NCI-H460", "relative viability": 0.112}, {"cell line": "NCI-H2347", "relative viability": 0.813}]}]}
